In ChEMBL document CHEMBL5291721, “A preclinical secondary pharmacology resource illuminates target-adverse drug reaction associations of marketed drugs” (Nat Commun, 2023) one finds AC50 data, which are given here for 15 compounds.

Molecules are shown by their SMILES. Bounds are passed on as bounds.

For assay [1], the target named is Beta-1 adrenergic receptor (Homo sapiens, UniProt P08588). In kind it is functional.
Assay [2] has as its target Voltage-dependent L-type calcium channel subunit alpha-1C (Rattus norvegicus, UniProt P22002). In kind it is functional.
Assay [3] has as its target T1, Cholecystokinin receptor type A (Homo sapiens, UniProt P32238).
T1 sequence (P32238 whole entry): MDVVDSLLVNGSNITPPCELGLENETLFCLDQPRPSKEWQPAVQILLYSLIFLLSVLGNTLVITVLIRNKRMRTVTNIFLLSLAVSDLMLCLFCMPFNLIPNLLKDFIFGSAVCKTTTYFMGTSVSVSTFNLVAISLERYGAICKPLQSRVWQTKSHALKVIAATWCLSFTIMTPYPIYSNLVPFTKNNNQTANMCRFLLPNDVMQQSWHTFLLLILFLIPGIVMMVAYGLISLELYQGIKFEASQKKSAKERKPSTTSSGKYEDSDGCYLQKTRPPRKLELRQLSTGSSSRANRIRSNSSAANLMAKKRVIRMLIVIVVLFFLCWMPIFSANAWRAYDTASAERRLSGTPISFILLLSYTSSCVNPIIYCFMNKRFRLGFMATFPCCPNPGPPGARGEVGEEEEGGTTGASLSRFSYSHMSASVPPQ

For assay [4], the target named is Neuronal acetylcholine receptor subunit alpha-4 (Homo sapiens, UniProt P43681).
Sequence of Neuronal acetylcholine receptor subunit alpha-4 (P43681 whole entry): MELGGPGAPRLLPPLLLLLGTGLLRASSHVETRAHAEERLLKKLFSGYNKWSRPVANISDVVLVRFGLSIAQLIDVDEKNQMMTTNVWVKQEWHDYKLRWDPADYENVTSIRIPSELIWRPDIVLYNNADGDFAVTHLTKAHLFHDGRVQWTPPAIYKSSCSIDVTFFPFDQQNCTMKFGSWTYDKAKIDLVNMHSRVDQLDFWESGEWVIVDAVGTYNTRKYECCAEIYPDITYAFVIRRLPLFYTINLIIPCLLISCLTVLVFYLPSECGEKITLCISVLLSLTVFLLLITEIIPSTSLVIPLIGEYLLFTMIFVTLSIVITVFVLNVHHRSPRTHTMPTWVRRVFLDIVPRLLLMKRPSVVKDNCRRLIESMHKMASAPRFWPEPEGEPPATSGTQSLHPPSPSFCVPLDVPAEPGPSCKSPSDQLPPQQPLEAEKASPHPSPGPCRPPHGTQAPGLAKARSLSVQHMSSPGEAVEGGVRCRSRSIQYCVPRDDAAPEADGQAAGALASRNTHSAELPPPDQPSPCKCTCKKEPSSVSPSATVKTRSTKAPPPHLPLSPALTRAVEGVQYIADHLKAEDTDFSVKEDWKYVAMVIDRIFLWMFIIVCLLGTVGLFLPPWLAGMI
A further assay concerns the target Cannabinoid receptor 1 (Homo sapiens, UniProt P21554). The assay is classed as functional, cell-based.
In another assay the target is T2, Endothelin-1 receptor (Homo sapiens, UniProt P25101).
T2 sequence (P25101 whole entry): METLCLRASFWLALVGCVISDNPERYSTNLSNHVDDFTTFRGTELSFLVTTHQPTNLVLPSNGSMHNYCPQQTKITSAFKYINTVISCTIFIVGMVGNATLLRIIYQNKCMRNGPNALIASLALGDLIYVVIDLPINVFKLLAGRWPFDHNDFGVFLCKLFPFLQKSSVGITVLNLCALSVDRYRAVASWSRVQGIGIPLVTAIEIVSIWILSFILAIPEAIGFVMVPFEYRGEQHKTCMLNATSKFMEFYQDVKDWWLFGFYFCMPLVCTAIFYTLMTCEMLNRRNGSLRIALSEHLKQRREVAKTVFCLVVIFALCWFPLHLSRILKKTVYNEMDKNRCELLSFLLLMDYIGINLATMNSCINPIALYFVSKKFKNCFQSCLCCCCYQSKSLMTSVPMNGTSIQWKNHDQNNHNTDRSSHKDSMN

Assay [5] concerns the target T3, 5-hydroxytryptamine receptor 2C (Homo sapiens, UniProt P28335).
T3 sequence (P28335 whole entry): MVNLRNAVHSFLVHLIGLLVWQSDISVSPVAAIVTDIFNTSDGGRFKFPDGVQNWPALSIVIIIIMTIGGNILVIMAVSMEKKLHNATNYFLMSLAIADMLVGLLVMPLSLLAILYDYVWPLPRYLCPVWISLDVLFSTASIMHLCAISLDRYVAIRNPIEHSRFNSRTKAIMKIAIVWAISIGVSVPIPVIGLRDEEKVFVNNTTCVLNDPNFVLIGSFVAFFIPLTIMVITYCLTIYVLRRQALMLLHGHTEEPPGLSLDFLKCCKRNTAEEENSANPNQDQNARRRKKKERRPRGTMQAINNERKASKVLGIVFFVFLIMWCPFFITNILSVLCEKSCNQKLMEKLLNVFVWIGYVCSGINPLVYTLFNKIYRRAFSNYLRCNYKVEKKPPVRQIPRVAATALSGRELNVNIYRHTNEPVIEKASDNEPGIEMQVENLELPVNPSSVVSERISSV

A further assay addresses Mu-type opioid receptor (Homo sapiens, UniProt P35372). The assay is described as follows: biochemical. The assay is classed as functional.
Assay [6] concerns the target Sodium-dependent dopamine transporter (Homo sapiens, UniProt Q01959).
In assay [7] the target is T4, Amine oxidase [flavin-containing] A (Homo sapiens, UniProt P21397).
T4 sequence (P21397 whole entry): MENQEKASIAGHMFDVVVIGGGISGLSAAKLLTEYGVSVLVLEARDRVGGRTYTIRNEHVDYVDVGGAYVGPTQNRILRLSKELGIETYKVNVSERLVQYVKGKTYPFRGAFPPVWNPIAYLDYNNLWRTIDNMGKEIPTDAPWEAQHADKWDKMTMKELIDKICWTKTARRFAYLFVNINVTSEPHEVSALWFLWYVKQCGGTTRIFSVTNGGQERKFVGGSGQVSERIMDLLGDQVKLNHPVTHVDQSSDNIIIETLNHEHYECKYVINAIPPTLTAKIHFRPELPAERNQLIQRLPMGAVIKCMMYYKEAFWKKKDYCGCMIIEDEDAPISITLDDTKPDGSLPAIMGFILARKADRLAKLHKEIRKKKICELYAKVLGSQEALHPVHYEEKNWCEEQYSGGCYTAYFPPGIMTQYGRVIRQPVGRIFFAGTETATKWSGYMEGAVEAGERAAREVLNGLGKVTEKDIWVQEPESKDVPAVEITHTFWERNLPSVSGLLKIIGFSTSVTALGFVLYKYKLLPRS
The assay is classed as functional.

The target in assay [8] is Muscarinic acetylcholine receptor M3 (Homo sapiens, UniProt P20309).
Also: assay procedure not described here.

Sequence of Cannabinoid receptor 1 (P21554 whole entry): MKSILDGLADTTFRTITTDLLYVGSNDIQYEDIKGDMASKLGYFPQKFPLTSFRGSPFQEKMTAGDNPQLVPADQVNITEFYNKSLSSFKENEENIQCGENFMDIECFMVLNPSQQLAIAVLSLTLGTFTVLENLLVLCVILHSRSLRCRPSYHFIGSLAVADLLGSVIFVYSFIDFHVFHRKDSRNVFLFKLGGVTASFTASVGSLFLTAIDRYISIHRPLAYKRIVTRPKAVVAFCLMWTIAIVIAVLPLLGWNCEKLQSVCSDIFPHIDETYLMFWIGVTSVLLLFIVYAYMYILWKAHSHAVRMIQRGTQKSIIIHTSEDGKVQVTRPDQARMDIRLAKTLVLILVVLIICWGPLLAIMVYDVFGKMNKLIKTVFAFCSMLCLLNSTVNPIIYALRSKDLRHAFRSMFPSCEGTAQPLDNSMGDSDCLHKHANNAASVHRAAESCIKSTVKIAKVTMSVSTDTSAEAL
Sequence of Mu-type opioid receptor (P35372 whole entry): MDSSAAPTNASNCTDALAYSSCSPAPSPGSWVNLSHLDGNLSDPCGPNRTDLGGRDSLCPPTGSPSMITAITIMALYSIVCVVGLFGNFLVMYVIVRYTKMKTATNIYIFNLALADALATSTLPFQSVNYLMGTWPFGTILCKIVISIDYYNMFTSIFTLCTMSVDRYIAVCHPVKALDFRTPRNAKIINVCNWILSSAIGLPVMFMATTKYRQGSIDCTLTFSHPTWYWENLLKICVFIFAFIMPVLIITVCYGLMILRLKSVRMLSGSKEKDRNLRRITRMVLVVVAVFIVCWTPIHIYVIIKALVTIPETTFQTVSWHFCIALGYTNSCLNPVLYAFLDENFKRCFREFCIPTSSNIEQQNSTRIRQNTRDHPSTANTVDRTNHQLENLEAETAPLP
Sequence of Voltage-dependent L-type calcium channel subunit alpha-1C (P22002 whole entry): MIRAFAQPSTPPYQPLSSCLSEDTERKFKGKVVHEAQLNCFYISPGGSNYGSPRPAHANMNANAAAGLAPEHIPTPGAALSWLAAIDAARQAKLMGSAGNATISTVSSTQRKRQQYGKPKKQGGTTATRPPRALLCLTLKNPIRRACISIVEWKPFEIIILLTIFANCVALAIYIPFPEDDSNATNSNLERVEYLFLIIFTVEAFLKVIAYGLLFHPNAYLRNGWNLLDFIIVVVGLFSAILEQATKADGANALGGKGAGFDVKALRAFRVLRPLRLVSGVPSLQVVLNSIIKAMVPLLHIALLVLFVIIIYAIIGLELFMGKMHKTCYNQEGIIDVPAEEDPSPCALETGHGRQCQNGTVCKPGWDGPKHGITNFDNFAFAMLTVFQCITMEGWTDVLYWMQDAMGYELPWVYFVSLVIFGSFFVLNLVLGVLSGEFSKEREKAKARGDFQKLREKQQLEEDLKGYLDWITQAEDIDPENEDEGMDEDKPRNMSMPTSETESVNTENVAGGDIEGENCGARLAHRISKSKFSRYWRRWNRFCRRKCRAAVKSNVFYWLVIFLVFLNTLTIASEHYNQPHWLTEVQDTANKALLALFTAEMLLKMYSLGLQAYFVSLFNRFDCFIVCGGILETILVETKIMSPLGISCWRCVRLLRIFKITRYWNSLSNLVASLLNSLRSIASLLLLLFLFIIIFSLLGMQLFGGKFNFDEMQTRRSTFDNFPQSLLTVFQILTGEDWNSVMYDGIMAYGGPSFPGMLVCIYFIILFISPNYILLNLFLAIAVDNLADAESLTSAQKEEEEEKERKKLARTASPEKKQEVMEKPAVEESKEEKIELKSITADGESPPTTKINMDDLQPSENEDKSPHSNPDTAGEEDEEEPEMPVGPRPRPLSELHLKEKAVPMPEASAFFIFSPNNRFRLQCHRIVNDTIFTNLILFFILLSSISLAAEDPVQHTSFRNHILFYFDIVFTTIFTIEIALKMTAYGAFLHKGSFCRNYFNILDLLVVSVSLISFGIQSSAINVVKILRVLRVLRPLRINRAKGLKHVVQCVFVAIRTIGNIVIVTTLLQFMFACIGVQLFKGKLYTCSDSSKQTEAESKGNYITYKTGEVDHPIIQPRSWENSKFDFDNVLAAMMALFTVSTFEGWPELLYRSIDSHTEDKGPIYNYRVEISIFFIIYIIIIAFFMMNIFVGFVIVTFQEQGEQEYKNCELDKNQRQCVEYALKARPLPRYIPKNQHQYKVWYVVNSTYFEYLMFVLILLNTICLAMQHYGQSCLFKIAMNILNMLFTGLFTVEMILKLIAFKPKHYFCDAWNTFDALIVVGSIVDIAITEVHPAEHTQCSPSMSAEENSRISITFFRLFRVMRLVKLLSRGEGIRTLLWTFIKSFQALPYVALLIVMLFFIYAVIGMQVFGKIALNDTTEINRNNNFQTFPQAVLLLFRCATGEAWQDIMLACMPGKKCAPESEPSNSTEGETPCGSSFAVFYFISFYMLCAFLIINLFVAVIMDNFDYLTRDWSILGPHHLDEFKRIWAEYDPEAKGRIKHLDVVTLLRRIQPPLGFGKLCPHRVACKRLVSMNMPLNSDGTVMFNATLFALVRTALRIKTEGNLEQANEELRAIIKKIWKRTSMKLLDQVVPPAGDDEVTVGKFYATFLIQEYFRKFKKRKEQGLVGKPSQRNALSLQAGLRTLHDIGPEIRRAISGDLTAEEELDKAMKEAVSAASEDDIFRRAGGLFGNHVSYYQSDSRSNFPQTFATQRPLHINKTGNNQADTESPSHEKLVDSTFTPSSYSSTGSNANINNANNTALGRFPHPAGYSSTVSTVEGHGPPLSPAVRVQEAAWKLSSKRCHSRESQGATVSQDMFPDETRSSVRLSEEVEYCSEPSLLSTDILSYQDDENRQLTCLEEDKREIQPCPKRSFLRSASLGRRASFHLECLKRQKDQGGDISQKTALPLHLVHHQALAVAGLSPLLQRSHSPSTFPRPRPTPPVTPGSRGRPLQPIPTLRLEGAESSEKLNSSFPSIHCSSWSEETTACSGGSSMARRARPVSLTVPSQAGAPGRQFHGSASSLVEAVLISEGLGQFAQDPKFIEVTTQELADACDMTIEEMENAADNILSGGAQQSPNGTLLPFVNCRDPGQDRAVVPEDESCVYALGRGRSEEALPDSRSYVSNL
Sequence of Beta-1 adrenergic receptor (P08588 whole entry): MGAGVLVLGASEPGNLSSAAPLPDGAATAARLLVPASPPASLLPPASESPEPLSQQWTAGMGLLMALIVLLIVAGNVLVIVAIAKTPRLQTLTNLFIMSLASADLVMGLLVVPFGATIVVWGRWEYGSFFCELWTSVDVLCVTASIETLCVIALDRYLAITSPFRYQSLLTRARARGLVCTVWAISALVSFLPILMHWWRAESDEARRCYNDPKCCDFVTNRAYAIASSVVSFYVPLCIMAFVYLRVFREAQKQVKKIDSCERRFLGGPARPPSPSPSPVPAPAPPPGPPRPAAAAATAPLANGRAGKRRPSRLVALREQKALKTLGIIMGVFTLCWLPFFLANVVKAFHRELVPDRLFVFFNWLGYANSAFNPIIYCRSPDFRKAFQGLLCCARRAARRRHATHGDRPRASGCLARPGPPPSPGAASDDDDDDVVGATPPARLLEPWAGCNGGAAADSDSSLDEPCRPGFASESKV
Sequence of Sodium-dependent dopamine transporter (Q01959 whole entry): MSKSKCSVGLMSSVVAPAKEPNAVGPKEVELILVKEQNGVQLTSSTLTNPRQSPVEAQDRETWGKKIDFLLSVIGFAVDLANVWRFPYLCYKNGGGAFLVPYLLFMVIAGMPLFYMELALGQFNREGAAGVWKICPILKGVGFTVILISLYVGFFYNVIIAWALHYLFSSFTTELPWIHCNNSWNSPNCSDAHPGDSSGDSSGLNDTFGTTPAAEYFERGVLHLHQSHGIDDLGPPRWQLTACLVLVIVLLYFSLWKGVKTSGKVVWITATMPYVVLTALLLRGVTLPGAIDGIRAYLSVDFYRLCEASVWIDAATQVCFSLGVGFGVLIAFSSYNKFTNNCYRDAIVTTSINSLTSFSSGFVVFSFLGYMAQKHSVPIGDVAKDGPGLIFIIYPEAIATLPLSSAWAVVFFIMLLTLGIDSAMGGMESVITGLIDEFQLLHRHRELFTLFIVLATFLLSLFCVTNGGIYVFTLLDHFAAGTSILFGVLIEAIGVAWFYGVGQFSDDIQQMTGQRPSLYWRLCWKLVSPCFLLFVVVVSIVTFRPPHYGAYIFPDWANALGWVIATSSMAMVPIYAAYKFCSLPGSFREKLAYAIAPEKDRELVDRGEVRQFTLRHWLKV

In the case of `COc1ccc2c(c1)c(CC(=O)OCC(=O)O)c(C)n2C(=O)c1ccc(Cl)cc1` [ACEMETACIN], the AC50 (in assay [1]; in assay [2]; in assay [3]; in assay [4]; at Cannabinoid receptor 1; on Endothelin-1 receptor) was greater than 30 µM each time. For the same compound, the AC50 (in [5]; on Mu-type opioid receptor; in assay [6]; in assay [7]) was greater than 30 µM throughout.
For the compound `CC(=O)OCC(=O)[C@@]12OC3(CCCC3)O[C@@H]1C[C@H]1[C@@H]3CCC4=CC(=O)C=C[C@]4(C)[C@@]3(F)[C@@H](O)C[C@@]12C` [AMCINONIDE], the AC50 was greater than 10 µM in assay [1]; greater than 10 µM in [2]; greater than 10 µM in assay [3]; greater than 30 µM in assay [8]; greater than 10 µM in assay [4]; greater than 30 µM in assay [5]. The AC50 was greater than 30 µM at Mu-type opioid receptor, greater than 10 µM in [6] and greater than 10 µM in assay [7].
Regarding `CN1C(=O)COc2c(C(=O)NC3CN4CCC3CC4)cc(Cl)cc21` (configuration not stated) [AZASETRON], the AC50 (in assay [1]; in [2]; in assay [3]; in [4]; at Cannabinoid receptor 1; at Endothelin-1 receptor) was greater than 30 µM throughout. Further, the AC50 (in [5]; at Mu-type opioid receptor; in assay [6]; in [7]) was greater than 30 µM in each case.
In the case of `Cc1cc2c(OCC(CNC(C)(C)C)OC(=O)c3ccccc3)cccc2[nH]1` (configuration not stated) [BOPINDOLOL], the AC50 was 0.0048 µM in [1]; greater than 30 µM in assay [2]; greater than 30 µM in [3]; greater than 30 µM in assay [4]; greater than 30 µM on Cannabinoid receptor 1; greater than 30 µM on Endothelin-1 receptor. Also, the AC50 in assay [5] was greater than 30 µM; at Mu-type opioid receptor it was greater than 30 µM; in assay [6], 12 µM; in assay [7] it was greater than 30 µM.
`CCCCN1CCCCC1C(=O)Nc1c(C)cccc1C` (configuration not stated) [BUPIVACAINE]: the AC50 (in assay [1]; in assay [2]; in assay [3]; in assay [4]; at Cannabinoid receptor 1; on Endothelin-1 receptor) was greater than 30 µM throughout. The AC50 (in [5]; on Mu-type opioid receptor; in [6]; in assay [7]) was greater than 30 µM throughout.
`CC(C)(Oc1ccc(C2CC2(Cl)Cl)cc1)C(=O)O` (configuration not stated) [CIPROFIBRATE]: the AC50 (in assay [1]; in assay [2]; in assay [3]; in [4]; on Cannabinoid receptor 1; on Endothelin-1 receptor) was greater than 30 µM throughout. Besides, the AC50 (in assay [5]; at Mu-type opioid receptor; in [6]; in assay [7]) was greater than 30 µM in each case.
For `Cc1c(O)c(=O)ccn1C` [DEFERIPRONE], the AC50 (in assay [1]; in [2]; in [3]; in [4]; on Cannabinoid receptor 1; on Endothelin-1 receptor) was greater than 30 µM throughout. The AC50 (in [5]; at Mu-type opioid receptor; in assay [6]; in assay [7]) was greater than 30 µM each time.
In the case of `O=C(CCCCC(=O)Nc1c(I)cc(I)c(C(=O)O)c1I)Nc1c(I)cc(I)c(C(=O)O)c1I` [IODIPAMIDE], the AC50 in assay [1] is greater than 10 µM; in assay [2], greater than 10 µM; in assay [3] it was greater than 10 µM; in assay [8], greater than 30 µM; in assay [4], greater than 10 µM; in assay [5], greater than 30 µM. The AC50 on Mu-type opioid receptor is greater than 30 µM; in [6] it was greater than 10 µM; in assay [7], greater than 10 µM.
Regarding `CC(C)[N+](C)(CCC(C(N)=O)(c1ccccc1)c1ccccc1)C(C)C` [ISOPROPAMIDE], the AC50 in assay [1] is greater than 10 µM; in assay [2], greater than 10 µM; in assay [3], greater than 10 µM; in assay [8] it was 0.0056 µM; in [4] it was greater than 10 µM; in [5] it was greater than 30 µM. Also, the AC50 is greater than 30 µM on Mu-type opioid receptor, greater than 10 µM in [6] and greater than 10 µM in [7].
`Cc1cccc(C)c1NC(=O)C1CCCCN1C` (configuration not stated) [MEPIVACAINE]: the half-maximal activity concentration (AC50) (in [1]; in assay [3]; in [4]; at Cannabinoid receptor 1; at Endothelin-1 receptor; in assay [5]) was greater than 30 µM each time. Also, the AC50 (on Mu-type opioid receptor; in assay [6]; in [7]) was greater than 30 µM each time.
In the case of `C[C@]12CCC(=O)C=C1CC[C@@H]1[C@@H]2CC[C@@]2(C)[C@H]1CC[C@]2(C)O` [METHYLTESTOSTERONE], the half-maximal activity concentration (AC50) (in assay [1]; in assay [2]; in [3]; in assay [4]; on Cannabinoid receptor 1; on Endothelin-1 receptor) was greater than 30 µM each time. The AC50 (in assay [5]; at Mu-type opioid receptor; in [6]; in assay [7]) was greater than 30 µM in each case.
Consider `COc1c(C)c2c(c(O)c1C/C=C(\C)CCC(=O)OCCN1CCOCC1)C(=O)OC2` [MYCOPHENOLATE MOFETIL], for which the AC50 (in assay [1]; in assay [2]; in assay [3]; in assay [4]; at Cannabinoid receptor 1; on Endothelin-1 receptor) was greater than 30 µM each time. Besides, the AC50 (in [5]; at Mu-type opioid receptor; in [6]; in assay [7]) was greater than 30 µM in each case.
In the case of `CCCOc1ccc(C(=O)OCCN(CC)CC)cc1N` [PROPARACAINE], the AC50 (in [1]; in assay [3]; in [4]; at Cannabinoid receptor 1; on Endothelin-1 receptor; in assay [5]) was greater than 30 µM each time. Moreover, the AC50 was greater than 30 µM on Mu-type opioid receptor, greater than 30 µM in [6] and 11 µM in assay [7].
`C#CCN[C@@H]1CCc2ccccc21` [RASAGILINE]: the AC50 in assay [1], in [2], in assay [3], in assay [8], in [4] and in assay [5] was greater than 30 µM in each case. Also, the AC50 (on Mu-type opioid receptor; in assay [6]) was greater than 30 µM in each case.
For the compound `Nc1nc2ccc(OC(F)(F)F)cc2s1` [RILUZOLE], the AC50 (in assay [1]; in assay [3]; in assay [4]; on Cannabinoid receptor 1; on Endothelin-1 receptor; in [5]) was greater than 30 µM in each case. Moreover, the AC50 (at Mu-type opioid receptor; in assay [6]; in [7]) was greater than 30 µM each time.
